One series has as its system Jurkat cells. Nature of the series: Cell cytotoxicity assay (r). Format: cell-based, human. Particulars: 24 hours. The method, then:
1×10^5 Jurkat cells (immortalised human T lymphocytes) are added to the appropriate number of wells of a 96 well plate in 100 μL of media (RPMI supplemented with 10% foetal bovine serum). 1 μL of DMSO control (final concentration 1.0% v/v) or test compound (final concentration 20, 5 or 1 μg/mL) is added to the wells and incubated at 37° C., 5% CO2. After 24 hours, the plate is centrifuged at 1200 rpm for 3 minutes and the supernatant discarded. Cells are then resuspended in 150 μL (final concentration 7.5 μg/mL) of propidium iodide (PI) in PBS and incubated at 37° C., 5% CO2 for 15 minutes. After 15 minutes, cells are analysed by flow cytometry (BD accuri) using the FL3 window. The % viability is calculated as the % of cells that are PI negative in the test wells normalised to the DMSO control.

The nature of series [1]: Solubility in fasted-state simulated colonic fluid (FaSSCoF) at pH 6.5. Format: physicochemical. Particulars: 25 °C, pH 6.5, fassgf or other biorelevant, thermodynamic from solid. In short, it runs like this: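 Compounds were suspended at up to 2-10 mg/mL in pH 6.5 Tris/maleate FaSSCoF containing a five-bile-acid mixture, phosphatidylcholine, palmitic acid and BSA. After 24 h equilibration at 25° C the suspension was filtered and the filtrate quantified by HPLC peak area against a standard.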

The mark [2] stands for this setting: pH 6.5 FaSSCoF Solubility (mg/mL) Run 1.
Setting [3] is: pH 6.5 FaSSCoF Solubility (mg/mL) Run 2.

≈ marks a conversion by molar mass, not a printed value. Some results are limits rather than exact numbers.

In the case of `COc1cc(Nc2cc(Oc3ccc(NC(=O)Nc4cc(C(C)(C)C)cc(NS(C)(=O)=O)c4OC)c4ccccc34)ccn2)ccc1S(=O)(=O)N(C)CCN1CCN(C)CC1` [17(bb), 4-((4-((4-(3-(5-(tert-Butyl)-2-methoxy-3-(methylsulfonamido)phenyl)ureido)naphthalen-1-yl)oxy)pyridin-2-yl)amino)-2-methoxy-N-methyl-N-(2-(4-methylpiperazin-1-yl)ethyl)benzenesulfonamide], the “% Viability at 20 μg/mL” value in the series with Jurkat cells was found to be 0.2%. Besides, the thermodynamic solubility at 24 h in series [1] (setting [2]) and in series [1] (setting [3]) was below 1 µg/mL each time.

For `COc1cc(Nc2cc(Oc3ccc(NC(=O)Nc4cc(C(C)(C)C)cc(NS(C)(=O)=O)c4OC)c4ccccc34)ccn2)ccc1C(=O)NCCN1CCN(C(C)C)CC1` [17(bf), 4-((4-((4-(3-(5-(tert-Butyl)-2-methoxy-3-(methylsulfonamido)phenyl)ureido)naphthalen-1-yl)oxy)pyridin-2-yl)amino)-N-(2-(4-isopropylpiperazin-1-yl)ethyl)-2-methoxybenzamide], in the series on Jurkat cells, the “% Viability at 5 μg/mL” value is 1.5%. Further, the “% Viability at 20 μg/mL” value in the series with Jurkat cells was determined as 0.6%. Further, the values for the solubility (thermodynamic) at 24 h in series [1] (setting [2]) and in series [1] (setting [3]) were 13 µg/mL (≈ 15.2 µM) and 15 µg/mL (≈ 17.6 µM), respectively.

In the case of `COc1cc(Nc2cc(Oc3ccc(NC(=O)Nc4cc(C(C)(C)C)cc(NS(C)(=O)=O)c4OC)c4ccccc34)ccn2)ccc1C(=O)NCCC1(O)CCN(C)CC1` [17(bg), 4-((4-((4-(3-(5-(tert-Butyl)-2-methoxy-3-(methylsulfonamido)phenyl)ureido)naphthalen-1-yl)oxy)pyridin-2-yl)amino)-N-(2-(4-hydroxy-1-methylpiperidin-4-yl)ethyl)-2-methoxy benzamide], the “% Viability at 5 μg/mL” value with Jurkat cells is given as 60.0%. The “% Viability at 20 μg/mL” value in the series with Jurkat cells worked out at 0.3%. Moreover, the results for the thermodynamic solubility at 24 h in series [1] (setting [2]) and in series [1] (setting [3]) were 16 µg/mL (≈ 19 µM) and 19 µg/mL (≈ 22.6 µM), respectively.

As for `COc1cc(Nc2cc(Oc3ccc(NC(=O)Nc4cc(C(C)(C)C)cc(NS(C)(=O)=O)c4OC)c4ccccc34)ccn2)ccc1C(=O)N(C)CCN1CCN(C)CC1` [17(bh), 4-((4-((4-(3-(5-(tert-Butyl)-2-methoxy-3-(methylsulfonamido)phenyl)ureido)naphthalen-1-yl)oxy)pyridin-2-yl)amino)-2-methoxy-N-methyl-N-(2-(4-methylpiperazin-1-yl)ethyl)benzamide], the “% Viability at 20 μg/mL” value in the series with Jurkat cells is given as 0.6%. In addition, the thermodynamic solubility (commonly solubility found after equilibrating the solid with the medium) at 24 h in series [1] (setting [2]) is 16 µg/mL (≈ 19.1 µM); in series [1] (setting [3]), 19 µg/mL (≈ 22.6 µM).

In the case of `COc1cc(Nc2cc(Oc3ccc(NC(=O)Nc4cc(C(C)(C)C)cc(NS(C)(=O)=O)c4OC)c4ccccc34)ccn2)ccc1C(=O)NC(C)CN1CCN(C)CC1` (centres unmarked) [17(bl), 4-((4-((4-(3-(5-(tert-Butyl)-2-methoxy-3-(methylsulfonamido)phenyl)ureido)naphthalen-1-yl)oxy)pyridin-2-yl)amino)-2-methoxy-N-(1-(4-methylpiperazin-1-yl)propan-2-yl)benzamide], in the series on Jurkat cells, the “% Viability at 5 μg/mL” value is 0.2% and the “% Viability at 20 μg/mL” value stood at 0.5%. Also, in series [1] (setting [2]), the thermodynamic solubility at 24 h is 16 µg/mL (≈ 19.1 µM). In series [1] (setting [3]), this compound showed a thermodynamic solubility at 24 h of 17 µg/mL (≈ 20.3 µM).

For the compound `COc1cc(Nc2cc(Oc3ccc(NC(=O)Nc4cc(C(C)(C)C)cc(NS(C)(=O)=O)c4OC)c4ccccc34)ccn2)ccc1C(=O)NCCOCCO` [17(bm), 4-((4-((4-(3-(5-(tert-Butyl)-2-methoxy-3-(methylsulfonamido)phenyl)ureido)naphthalen-1-yl)oxy)pyridin-2-yl)amino)-N-(2-(2-hydroxyethoxy)ethyl)-2-methoxybenzamide], in the series with Jurkat cells, the “% Viability at 5 μg/mL” value was found to be 0.2% and the “% Viability at 20 μg/mL” value is reported as 0.5%. In series [1] (setting [2]), the solubility (thermodynamic) at 24 h was 5 µg/mL (≈ 6.35 µM). Also, the solubility (thermodynamic) at 24 h in series [1] (setting [3]) is 5 µg/mL (≈ 6.35 µM).

As for `COc1cc(Nc2cc(Oc3ccc(NC(=O)Nc4cc(NS(C)(=O)=O)cc(C(C)(C)C)c4)c4ccccc34)ccn2)ccc1C(=O)NCCN1CCN(C)CC1` [17(bo), 4-((4-((4-(3-(3-(tert-Butyl)-5-(methylsulfonamido)phenyl)ureido)naphthalen-1-yl)oxy)pyridin-2-yl)amino)-2-methoxy-N-(2-(4-methylpiperazin-1-yl)ethyl)benzamide], in the series with Jurkat cells, the “% Viability at 20 μg/mL” value was determined as 14.0%. Moreover, the results for the solubility (thermodynamic) at 24 h in series [1] (setting [2]) and in series [1] (setting [3]) were 35 µg/mL (≈ 44 µM) and 33 µg/mL (≈ 41.5 µM), respectively.

For the compound `COc1cc(Nc2cc(Oc3ccc(NC(=O)Nc4cc(NS(C)(=O)=O)cc(C(C)(C)C)c4)c4ccccc34)ccn2)ccc1C(=O)NCCCN1CCN(C)CC1` [17(bp), 4-((4-((4-(3-(3-(tert-Butyl)-5-(methylsulfonamido)phenyl)ureido)naphthalen-1-yl)oxy)pyridin-2-yl)amino)-2-methoxy-N-(3-(4-methylpiperazn-1-yl)propyl)benzamide], the “% Viability at 5 μg/mL” value with Jurkat cells is 41.0%. In addition, in the series on Jurkat cells, the “% Viability at 20 μg/mL” value turned out to be 2.0%. The solubility (thermodynamic) at 24 h in series [1] (setting [2]) was 23 µg/mL (≈ 28.4 µM); in series [1] (setting [3]), 24 µg/mL (≈ 29.7 µM).

Consider `COc1c(NC(=O)Nc2ccc(Oc3ccnc(Nc4ccc(C(=O)NCCN5CCN(C)CC5)c(N(C)C)c4)c3)c3ccccc23)cc(C(C)(C)C)cc1NS(C)(=O)=O` [17(bq), 4-((4-((4-(3-(5-(tert-Butyl)-2-methoxy-3-(methylsulfonamido)phenyl)ureido)naphthalen-1-yl)oxy)pyridin-2-yl)amino)-2-(dimethylamino)-N-(2-(4-methylpiperazin-1-yl)ethyl)benzamide], for which the “% Viability at 20 μg/mL” value in the series with Jurkat cells was determined as 2.0%. Also, the solubility (thermodynamic) at 24 h in series [1] (setting [2]) and in series [1] (setting [3]) was 9 µg/mL (≈ 10.7 µM) throughout.

As for `COc1cc(Nc2cc(Oc3ccc(NC(=O)Nc4cc(C(C)(C)C)cc(NS(C)(=O)=O)c4OC)c4ccccc34)ccn2)cc(OC)c1C(=O)NCC1CCN(C)CC1` [17(ca), 4-((4-((4-(3-(5-(tert-Butyl)-2-methoxy-3-(methylsulfonamido)phenyl)ureido)naphthalen-1-yl)oxy)pyridin-2-yl)amino)-2,6-dimethoxy-N-((1-methylpiperidin-4-yl)methyl)benzamide], the “% Viability at 5 μg/mL” value in the series on Jurkat cells came out at 94.0%. The thermodynamic solubility at 24 h in series [1] (setting [2]) and in series [1] (setting [3]) was 2 µg/mL (≈ 2.38 µM) in each case.

As for `COc1cc(Nc2cc(Oc3ccc(NC(=O)Nc4cc(C(C)(C)C)cc(NS(C)(=O)=O)c4OC)c4ccccc34)ccn2)ccc1C(=O)NCCN1CCN(C(=O)CC[C@H](N)C(=O)O)CC1` [17(cl), (S)-2-Amino-5-(4-(2-(4-((4-((4-(3-(5-(tert-butyl)-2-methoxy-3-(methylsulfonamido)-phenyl)ureido)naphthalen-1-yl)oxy)pyridin-2-yl)amino)-2-methoxybenzamido)ethyl)piperazin-1-yl)-5-oxopentanoic acid], the “% Viability at 5 μg/mL” value in the series on Jurkat cells came out at 94.0%. Further, the solubility (thermodynamic) at 24 h in series [1] (setting [2]) was 9 µg/mL (≈ 9.57 µM); in series [1] (setting [3]), 6 µg/mL (≈ 6.38 µM).

For `COc1cc(Nc2cc(Oc3ccc(NC(=O)Nc4cc(C(C)(C)C)cc(NS(C)(=O)=O)c4OC)c4ccccc34)ccn2)ccc1C(=O)NC(CO)(CO)CO` [17(cm), 4-((4-((4-(3-(5-(tert-Butyl)-2-methoxy-3-(methylsulfonamido)phenyl)ureido)naphthalen-1-yl)oxy)pyridin-2-yl)amino)-N-(1,3-dihydroxy-2-(hydroxymethyl)propan-2-yl)-2-methoxybenzamide], the “% Viability at 5 μg/mL” value with Jurkat cells was found to be 77.0%. Further, the solubility (thermodynamic) at 24 h in series [1] (setting [2]) is 8 µg/mL (≈ 9.96 µM); in series [1] (setting [3]), 9 µg/mL (≈ 11.2 µM).

In the case of `COc1cc(Nc2cc(Oc3ccc(NC(=O)Nc4cc(C(C)(C)C)cc(NS(C)(=O)=O)c4OC)c4ccccc34)ccn2)ccc1-c1nn[nH]n1` [Example 24, N-(5-(tert-Butyl)-2-methoxy-3-(3-(4-((2-((3-methoxy-4-(2H-tetrazol-5-yl)phenyl)amino)pyridin-4-yl)oxy)naphthalen-1-yl)ureido)phenyl)methanesulfonamide], the “% Viability at 20 μg/mL” value in the series on Jurkat cells was determined as 9.7%. Besides, the thermodynamic solubility at 24 h in series [1] (setting [2]) is 12 µg/mL (≈ 16.6 µM); in series [1] (setting [3]), 10 µg/mL (≈ 13.8 µM).

For `COc1cc(Nc2nccc(Oc3ccc(NC(=O)Nc4cc(C(C)(C)C)cc(NS(C)(=O)=O)c4OC)c4ccccc34)n2)ccc1S(N)(=O)=O` [Example 28, 4-((4-((4-(3-(5-(tert-Butyl)-2-methoxy-3-(methylsulfonamido)phenyl)ureido)naphthalen-1-yl)oxy)pyrimidin-2-yl)amino)-2-methoxybenzenesulfonamide], in the series on Jurkat cells (1 μg/mL), the “% Viability at 1 μg/mL” value stood at 100.0%. Further, the thermodynamic solubility at 24 h in series [1] (setting [2]) and in series [1] (setting [3]) was below 1 µg/mL throughout.

Regarding `COc1c(NC(=O)Nc2ccc(Oc3ccnc(Nc4ccc(C(=O)NCCCN5CCOCC5)c(O)c4)c3)c3ccccc23)cc(C(C)(C)C)cc1NS(C)(=O)=O` [Example 29, 4-((4-((4-(3-(5-(tert-Butyl)-2-methoxy-3-(methylsulfonamido)phenyl)ureido)naphthalen-1-yl)oxy)pyridin-2-yl)amino)-2-hydroxy-N-(3-morpholinopropyl)benzamide], the “% Viability at 20 μg/mL” value in the series on Jurkat cells amounted to 2.0%. Also, the figures for the thermodynamic solubility at 24 h in series [1] (setting [2]) and in series [1] (setting [3]) were 11 µg/mL (≈ 13.5 µM) and 9 µg/mL (≈ 11.1 µM), respectively.

The record behind these values is US9751837B2, “Kinase inhibitors” (RESPIVERT LIMITED, priority 2014, dated 2017).
